According to the OPERA property sets (Mansouri et al. 2018):

Row | SMILES | logP
1 | N#CC(C#N)=NNc1ccccc1[N+](=O)[O-] | 2.9
2 | N#CC(C#N)=NNc1ccc(CCCl)cc1 | 3.58
3 | CC(=O)Nc1ccc(NN=C(C#N)C#N)cc1 | 1.83
4 | N#CC(C#N)=NNc1ccc(OC(F)(F)F)cc1 | 3.68
5 | N#CC(C#N)=NNc1ccc(Cl)cc1 | 3.39
6 | CC(=O)c1ccc(NN=C(C#N)C#N)cc1 | 2.1
7 | Cc1ccc(NN=C(C#N)C#N)cc1 | 3.2
8 | N#CC(C#N)=NNc1ccc([N+](=O)[O-])cc1 | 2.37
9 | N#CC(C#N)=NNc1cccc(Cl)c1 | 3.38
10 | N#CC(C#N)=NNc1cccc(O)c1 | 2.28
